Data published in patent EP0250134B1, “Method for combating swine dysentery” (IMCERA Group Inc., priority 1986, dated 1987).
Where a name gives a salt, the structure may show the parent alone. Read-outs that look alike come from different tables or passages of the source.

Test system: Treponema hyodysenteriae
Assay: in vitro Streak Plate Test Method (inhibition endpoint / MIC on trypticase soy blood agar)
Type: cell-based
Settings: for Inhibition Endpoints / MIC: first number = growth occurred, second = no growth, 48 hrs at 39°C anaerobic; for MIC: Brachyspira hyodysenteriae, 48 h
Experimental: The following test procedure was used to evaluate the anti-Treponema hyodysenteriae activity of the compounds in the present invention. This test procedure establishes the lowest concentration of the compounds that will inhibit the growth on cultures of Treponema hyodysenteriae in an in vitro Streak Plate Test Method.
Procedure: Stock solutions containing 10,000, 1,000, 100, 10, 1.0, and 0.1, micrograms per milliliters of the compound to be tested were prepared. The final dilutions to establish the test concentrations in the media were made by placing the correct volume of stock solution in a petri dish, adding the media (trypticase soy blood agar), and mixing before the media solidified. After the media solidified, the test cultures of Treponema hyodysenteriae were streaked onto the surface of the agar. Petri dishes containing media without test samples were also set up as culture controls and are inoculated in the same manner. All inoculated plates were incubated at 39°C in anaerobic jars for 48 hrs. Inhibition endpoints were then determined by observing the test plates for growth or no growth of the test cultures at the various concentrations of the compounds. If the culture growth occured at one concentration but not at the next higher concentration, the inhibitory endpoint or MIC (Minimum Inhibitory Concentration) was considered the higher concentration.
Referring to Table 1, the culture numbers refer to field isolate strains of Treponema hyodysenteriae. These field isolates were isolated in Illinois, Iowa, and Nebraska. The numbers giving the results in the Table are read as follows: the first number for each isolate and compound tested corresponds to the concentration in micrograms per milliliter where growth occurred and the second number corresponds to the concentration in micrograms per milliliter where no growth occurred.

[1] = Culture No. 8064 (field isolate)
[2] = Culture No. 8072 (field isolate)
[3] = Culture No. 8076 (field isolate)
[4] = Culture No. 8080 (field isolate)
[5] = Culture No. 8087 (field isolate)
[6] = Culture No. 8098 (field isolate)
[7] = Culture No. 8125 (field isolate)
[8] = Culture No. B-100 (field isolate)
[9] = Culture No. B-140 (field isolate)

Zn Lysocellin
.05-.1 µgs/ml: Inhibition Endpoints [5] | Inhibition Endpoints [7] | Inhibition Endpoints [8] | Inhibition Endpoints [9]
.1-.5 µgs/ml: Inhibition Endpoints [1] | Inhibition Endpoints [2] | Inhibition Endpoints [3] | Inhibition Endpoints [4] | Inhibition Endpoints [6]

CCC(C(=O)C(C)C(O)C(C)CCc1ccc(C)c(O)c1C(=O)O)C1OC(CC)(C2CCC(O)(CC)C(C)O2)CC1C (centres unmarked) [Lasalocid Na, reference compound]
1 to 5 µg/mL: MIC (Culture No. 8064 (field isolate), read-out: Inhibition Endpoints) | MIC (Culture No. 8072 (field isolate), read-out: Inhibition Endpoints) | MIC (Culture No. 8076 (field isolate), read-out: Inhibition Endpoints) | MIC (Culture No. 8087 (field isolate), read-out: Inhibition Endpoints) | MIC (Culture No. 8098 (field isolate), read-out: Inhibition Endpoints) | MIC (Culture No. 8125 (field isolate), read-out: Inhibition Endpoints) | MIC (Culture No. B-140 (field isolate), read-out: Inhibition Endpoints)
0.5 to 1 µg/mL: MIC (Culture No. 8080 (field isolate), read-out: Inhibition Endpoints) | MIC (Culture No. B-100 (field isolate), read-out: Inhibition Endpoints)

Lysocellin Na
.1-.5 µgs/ml: Inhibition Endpoints [1] | Inhibition Endpoints [2] | Inhibition Endpoints [3] | Inhibition Endpoints [4] | Inhibition Endpoints [5] | Inhibition Endpoints [6] | Inhibition Endpoints [7] | Inhibition Endpoints [8] | Inhibition Endpoints [9]

CCC[C@@H]1C[C@@H](C(=O)N[C@@H]([C@H]2O[C@H](SC)[C@H](O)[C@@H](O)[C@H]2O)[C@@H](C)O)N(C)C1 [Lincomycin HCL, reference compound]
1 to 5 µg/mL: MIC (read-out: Inhibition Endpoints, Culture No. B-100 (field isolate))
0.05 to 0.1 µg/mL: MIC (read-out: Inhibition Endpoints, Culture No. B-140 (field isolate))
10 to 50 µg/mL: MIC (read-out: Inhibition Endpoints, Culture No. 8064 (field isolate)) | MIC (read-out: Inhibition Endpoints, Culture No. 8072 (field isolate)) | MIC (read-out: Inhibition Endpoints, Culture No. 8076 (field isolate)) | MIC (read-out: Inhibition Endpoints, Culture No. 8080 (field isolate)) | MIC (read-out: Inhibition Endpoints, Culture No. 8087 (field isolate)) | MIC (read-out: Inhibition Endpoints, Culture No. 8098 (field isolate)) | MIC (read-out: Inhibition Endpoints, Culture No. 8125 (field isolate))

Na Zn Lysocellin
1.0-5.0 µgs/ml: Inhibition Endpoints [1] | Inhibition Endpoints [2] | Inhibition Endpoints [3] | Inhibition Endpoints [5] | Inhibition Endpoints [7] | Inhibition Endpoints [8] | Inhibition Endpoints [9]
.1-.5 µgs/ml: Inhibition Endpoints [6]
.5-1.0 µgs/ml: Inhibition Endpoints [4]

Cu Lysocellin
.1-.5 µgs/ml: Inhibition Endpoints [1] | Inhibition Endpoints [4] | Inhibition Endpoints [5] | Inhibition Endpoints [7] | Inhibition Endpoints [8] | Inhibition Endpoints [9]
.05-.1 µgs/ml: Inhibition Endpoints [2] | Inhibition Endpoints [3] | Inhibition Endpoints [6]

Lysocellin Free Acid
<.01 µgs/ml: Inhibition Endpoints [3]
.01-.1 µgs/ml: Inhibition Endpoints [9]
.1-.5 µgs/ml: Inhibition Endpoints [1] | Inhibition Endpoints [4]
.05-.1 µgs/ml: Inhibition Endpoints [5] | Inhibition Endpoints [6]
.01-.05 µgs/ml: Inhibition Endpoints [2] | Inhibition Endpoints [7] | Inhibition Endpoints [8]

Co Lysocellin
<.01 µgs/ml: Inhibition Endpoints [2] | Inhibition Endpoints [7] | Inhibition Endpoints [8] | Inhibition Endpoints [9]
.05-.1 µgs/ml: Inhibition Endpoints [1] | Inhibition Endpoints [3] | Inhibition Endpoints [4] | Inhibition Endpoints [5] | Inhibition Endpoints [6]

Carriomycin Na [reference compound]
comparable activity: activity compared to the controls (summary of Table 1)
.01-.05 µgs/ml: Inhibition Endpoints [1] | Inhibition Endpoints [4] | Inhibition Endpoints [5]
<.01 µgs/ml: Inhibition Endpoints [2] | Inhibition Endpoints [3] | Inhibition Endpoints [6] | Inhibition Endpoints [7]

Mn Lysocellin
.1-.5 µgs/ml: Inhibition Endpoints [1] | Inhibition Endpoints [2] | Inhibition Endpoints [3] | Inhibition Endpoints [4] | Inhibition Endpoints [5] | Inhibition Endpoints [6] | Inhibition Endpoints [7] | Inhibition Endpoints [8] | Inhibition Endpoints [9]

Ni Lysocellin
<.01 µgs/ml: Inhibition Endpoints [2] | Inhibition Endpoints [7] | Inhibition Endpoints [8] | Inhibition Endpoints [9]
.1-.5 µgs/ml: Inhibition Endpoints [4]
.05-.1 µgs/ml: Inhibition Endpoints [1] | Inhibition Endpoints [3] | Inhibition Endpoints [5] | Inhibition Endpoints [6]
